Source: PubChem BioAssay (NCI)
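Exposure lasted 48 hours, with cells grown in 96-well plates and compounds tested at five concentrations. GI50 marks 50% less growth. TGI: concentration producing complete growth inhibition.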

Legend:
Experiment in all cases: growth of human tumour cells (NCI), 48 h
786-0 renal = test system: 786-0 renal
A498 renal = test system: A498 renal
A549 NSCLC = test system: A549 NSCLC
ACHN renal = test system: ACHN renal
BT-549 breast = test system: BT-549 breast
CAKI-1 renal = test system: CAKI-1 renal
CCRF-CEM leukemia = test system: CCRF-CEM leukemia
COLO 205 colon = test system: COLO 205 colon
DU-145 prostate = test system: DU-145 prostate
EKVX NSCLC = test system: EKVX NSCLC
HCC-2998 colon = test system: HCC-2998 colon
HCT-116 colon = test system: HCT-116 colon
HCT-15 colon = test system: HCT-15 colon
HOP-62 NSCLC = test system: HOP-62 NSCLC
HOP-92 NSCLC = test system: HOP-92 NSCLC
HS 578T breast = test system: HS 578T breast
HT29 colon = test system: HT29 colon
IGROV1 ovarian = test system: IGROV1 ovarian
K-562 leukemia = test system: K-562 leukemia
KM12 colon = test system: KM12 colon
LOX IMVI melanoma = test system: LOX IMVI melanoma
M14 melanoma = test system: M14 melanoma
MALME-3M melanoma = test system: MALME-3M melanoma
MCF7 breast = test system: MCF7 breast
MDA-MB-231 breast = test system: MDA-MB-231 breast
MDA-MB-435 = test system: MDA-MB-435
MOLT-4 leukemia = test system: MOLT-4 leukemia
NCI-H226 lung = test system: NCI-H226 lung

## CCN1C(=O)/C(=C/c2c(Cl)[nH]c3cc(C)c(OC)cc23)c2ccccc21
786-0 renal
  GI50: 4.87 µM
  TGI: 21.3 µM
A498 renal
  GI50: 5.95 µM
  TGI: 33 µM
A549 NSCLC
  GI50: 2.84 µM
  TGI: > 100 µM
ACHN renal
  GI50: 9.36 µM
  TGI: > 100 µM
BT-549 breast
  GI50: 0.5 µM
  TGI: 6.31 µM
CAKI-1 renal
  GI50: 5.45 µM
  TGI: > 100 µM
CCRF-CEM leukemia
  GI50: 1.76 µM
  TGI: 5.22 µM
COLO 205 colon
  GI50: 2.77 µM
  TGI: 15.4 µM
DU-145 prostate
  GI50: 3.29 µM
  TGI: > 100 µM
EKVX NSCLC
  GI50: 7.58 µM
  TGI: 80.4 µM
HCC-2998 colon
  GI50: 2.4 µM
  TGI: 7.15 µM
HCT-116 colon
  GI50: 3.78 µM
  TGI: 16.8 µM
HCT-15 colon
  GI50: 4.19 µM
  TGI: > 100 µM
HOP-62 NSCLC
  GI50: 5.6 µM
  TGI: 30.8 µM
HOP-92 NSCLC
  GI50: 12.8 µM
  TGI: 63.4 µM
HS 578T breast
  GI50: 2.86 µM
  TGI: 7.23 µM
HT29 colon
  GI50: 1.55 µM
  TGI: > 100 µM
IGROV1 ovarian
  GI50: 2.07 µM
  TGI: > 100 µM
K-562 leukemia
  GI50: 3.03 µM
  TGI: > 100 µM
KM12 colon
  GI50: 0.483 µM
  TGI: 12.2 µM
LOX IMVI melanoma
  GI50: 9.72 µM
  TGI: > 100 µM
M14 melanoma
  GI50: 4.42 µM
  TGI: 53.9 µM
MALME-3M melanoma
  GI50: 14.9 µM
  TGI: 70.6 µM
MCF7 breast
  GI50: 0.409 µM
  TGI: > 100 µM
MDA-MB-231 breast
  GI50: 2.43 µM
  TGI: 54.1 µM
MDA-MB-435
  GI50: 0.315 µM
  TGI: 0.737 µM
MOLT-4 leukemia
  GI50: 4.36 µM
  TGI: 35.2 µM
NCI-H226 lung
  GI50: 32.2 µM
  TGI: > 100 µM
